Experiment [1] has as its system pancreatic juice secretion. Briefly: Effect of LPA receptor or EDG-2 agonist on pancreatic juice secretion in rats (Example 6). The experiment is classed as in vivo. To be noted: rat, intravenous infusion through the cervical vein. As for the experimental part: Using an LPA receptor or EDG-2 agonist, the effect of LPA on the pancreatic juice secretion was examined. An LPA receptor agonist 18:3-LPA was intravenously infused to a rat through the cervical vein, and the amount of pancreatic juice secreted was measured. In a group to which 18:3-LPA was administered, the pancreatic juice secretion was inhibited in rats.

The test system of the next experiment is lipase secretion. Briefly: Determination of the amount of lipase secreted (Example 3). To be noted: rats. The experiment is classed as in vivo, rat. As for the experimental part:
The pancreatic juice collected in Example 1 was diluted with saline at an appropriate dilution rate and the lipase activity was measured with a reagent contained in Liquitech Lipase Color kit (Roche Diagnostics). Then, 100 μl of a kit R-1 solution was added to 10 μl of a lipase standard solution (Worthington Biochemical; prepared to 1 U/L to 1,000 U/L with saline) or the collected diluted pancreatic juice, and the mixture was incubated at 37° C. for 5 minutes. Then, 60 μl of a kit R-2 solution was added and the variation (Vmax) of optical density (OD) at 570-700 nm was monitored at 37° C. for 3 minutes (SPECTRAMAX 250). The lipase activity of the pancreatic juice was calculated from a lipase standard curve to evaluate the effect of the subject substance by means of the secreted amount of the enzyme (U/h) obtained by the enzyme activity (concentration)(U/L) multiplied by the amount of pancreatic juice collected (L/h).

The subject of experiment [2] is pancreatic juice secretion. As to the kind of experiment: Determination of the amount of pancreatic juice secreted in rats (Example 1). The experiment is classed as in vivo, rat. As for the experimental part:
Male rats (8 to 9 week-old) fasting from the morning of the previous day were anesthetized by subcutaneous application of urethane (1.2 g/5 ml/kg) and polyethylene tubes were inserted into the arteria carotis communis and the femoral vein. The abdomen was cut open along the median line and the gastric pylorus was ligated. Then, a polyethylene tube was inserted into the bile duct at the hepatic portal portion, through which the tip of the tube was inserted into the pore opened in the duodenum intestine in order to return bile to the duodenum intestine. The origin of the hepatoapancreatic tube from the duodenum intestine was cut open, into which a tube was inserted in the same way as in the bile duct and led outside the body. Pure pancreatic juice was collected from the tube.
The drug was continuously administered through the femoral vein with saline. On the other hand, a saline containing 18:3-LPA, 18:3-LPC or 0.5% bovine serum albumin (Sigma, A-0281) as control (vehicle) was infused (1 ml/h) through the cervical vein, and pancreatic juice was collected for 1 hour.
The volume of the collected pancreatic juice was measured. In this connection, saline was infused through the cervical vein and the femoral vein 1 hour before administration of the drug, during which time the amount of pancreatic juice secreted was measured in order to ascertain that there was no considerable difference between individual animals in the pre-value to the pancreatic juice secretion in the individual animals.

In experiment [3] the test system is pancreatic juice secretion. Briefly: Effect of LPA receptor or EDG-2 antagonist on pancreatic juice secretion in rats (Example 7). Type of experiment: in vivo, rat. As for the experimental part:
Using Compound 1 having the effect as a EDG-2 antagonist was confirmed in Example 5, the effect of LPA on the pancreatic juice secretion was examined.
In rats, (1) 18:3-LPA and (2) saline as a control (vehicle) for 18:3-LPA were respectively infused through the femoral vein, and (3) Compound 1 and (4) 5% bovine serum albumin/10% DMSO/saline as a control (vehicle) for Compound 1 were respectively infused through the cervical vein, at a rate of 0.5 ml/h for 1 hour.
On the other hand, saline was previously infused through the femoral vein and cervical vein (0.5 ml/h), and after one hour the pancreatic juice was collected in order to ascertain that there was no difference in the initial volumes of the secreted pancreatic juice in rats in each group.

Experiment [4] concerns cholecystokinin-induced pancreatic juice secretion. As to the kind of experiment: Pancreatic juice secreted in rats by stimulation with cholecystokinin (CCK-8) (Example 4). The experiment is classed as in vivo, rat. To be noted: CCK-8 0.12 μg/kg/h. As for the experimental part: The pancreatic juice secreted in rats was collected in the same manner as described in Example 1. In order to ascertain the effect of LPA on excessive pancreatic juice secretion by CCK, an experiment was conducted according to a protocol as shown in Table 2. As CCK, CCK-8 (Sigma No. C-2175) was used.
Saline was infused through the cervical vein and the femoral vein 1 hour before administration of the drug, during which time the amount of pancreatic juice secreted was measured in order to ascertain that there was no considerable difference between individual animals in the pre-value to the pancreatic juice secretion in the individual animals. After 1 hour infusion of saline, to the 18:3-LPA group and the 18:3-LPC group, were infused 3 mg/kg/h of 18:3-LPA and 10 mg/kg/h of 18:3-LPC, respectively, through the femoral vein. After lapse of 1 hour, CCK-8 was intravenously infused for stimulation through the cervical vein in order to examine the effect of LPA on the excessive pancreatic juice secretion. To the control group (vehicle) with no stimuli by CCK-8, 0.5% BSA in saline was administered through the cervical vein. On the other hand, saline was infused to the LPA control group (vehicle) through the femoral vein. In other groups, CCK-8 was administered through the cervical vein at a rate of 0.12 μg/kg/h and 1 ml/h. In the 18:3-LPA group and the 18:3-LPC group, 3 mg/kg/h of 18:3-LPA and 10 mg/kg/h of 18:3-LPC, respectively, were infused through the femoral vein. In the control group with no stimuli by CCK-8 and in the 18:3-LPA control group (vehicle), saline was administered through the femoral vein. One hour after the final administration (Admn.2), the volume of pancreatic juice collected was measured.

The test system of the next experiment is amylase secretion. Briefly: Determination of the amount of amylase secreted (Example 2). Type of experiment: in vivo, rat. As for the experimental part:
The pancreatic juice collected in Example 1 was diluted with Dulbecco's phosphate-buffered saline(−) (PBS(−)) at an appropriate dilution rate, of which the amylase activity was determined with a reagent of a Diacolor AMY Neorate (Ono Pharmaceutical) kit. To 10 μl of an amylase standard solution (Worthington Biochemical, diluted to 100 U/L to 6,400 U/L with PBS(−)) or the collected diluted pancreatic juice was added 50 μl of an enzyme reagent of the kit, and the mixture was incubated at 37° C. for 3 minutes. Then, after addition of 50 μl of a substrate reagent of the kit, the variation (Vmax) of optical density (OD) at 400 nm was monitored at 37° C. for 3 minutes (SPECTRAMAX 250). The amylase activity was calculated from an amylase standard curve to evaluate the effect of the subject substance by means of the secreted amount of the enzyme (U/h) obtained by the enzyme activity (concentration) (U/L) multiplied by the amount of pancreatic juice collected (L/h).

Setting [5] is: 10 mg/kg/h, 1 ml/h, i.v. infusion.

Experimental findings from patent US20080234230A1, “Pharmaceutical Composition for Regulation of Pancreatic Juice Secretion Comprising a LPA Receptor Modulator” (ONO PHARMACEUTICAL CO., LTD., priority 2001, published 2008) are described below.

Where no end group is shown, it is not given here. The star is where a group is joined. SO3H = O=S(=O)(O)*

`CC/C=C\C/C=C\C/C=C\CCCCCCCC(=O)OCC(O)COP(=O)(O)O` (stereo not drawn) [18:3-LPA, 1-linolenoyl-lyzophosphatidic acid]: the pancreatic juice secretion entry was “inhibited” in experiment [1]; “decreased” in experiment [2] (i.v. infusion 1 ml/h for 1 hr, 18:3-LPA 1, 3, 10 mg/kg/h, FIG. 1); “Dose-dependent inhibitory effect” in experiment [2] (i.v. infusion 1 ml/h for 1 hr, 18:3-LPA 1, 3, 10 mg/kg/h, FIG. 1, listed as LPA). Further, in the experiment with lipase secretion (3 and 10 mg/kg/h i.v. infusion, FIG. 3), the “amount of lipase secreted” value is given as “reduced significantly”. In addition, the “dose at which the effect on pancreatic juice secretion reached approximately the maximum” value in experiment [2] (i.v. infusion 1 ml/h) is recorded as ~3 mg/kg/h. Further, in experiment [3] (18:3-LPA 3 mg/kg/h i.v. infusion), the “basal secretion volume of pancreatic juice” value is “inhibition of the basal secretion volume was observed”. For the same molecule, the “pancreatic juice secretion increased by CCK-8” value in experiment [4] (3 mg/kg/h intravenous infusion, FIG. 4) is given as “reduced the increased pancreatic juice secretion approximately to the control level”. Moreover, in the experiment with amylase secretion (rats, 1, 3 or 10 mg/kg/h i.v. infusion, FIG. 2), the “amount of amylase secreted” value was “reduced”.

`CC/C=C\C/C=C\C/C=C\CCCCCCCC(=O)OCC(O)COP(=O)([O-])OCC[N+](C)(C)C` (stereo not drawn) [18:3-LPC, 1-linolenoyl lisophosphatidylcholine, reference compound]: in the experiment on lipase secretion (setting [5]), the lipase secretion entry is on record as “no inhibitory effect”. Besides, the pancreatic juice secretion result in experiment [2] (setting [5]) was “no inhibitory effect”. In addition, the “pancreatic juice secretion induced by CCK-8” value in experiment [4] (10 mg/kg/h, 1 ml/h, intravenous infusion) is “no inhibitory effect”. The amylase secretion entry in the experiment with amylase secretion (rats, 10 mg/kg/h, 1 ml/h, i.v. infusion) is given as “no inhibitory effect”.

On to `COC(=O)CCSCc1ccc(-c2onc(C)c2NC(=O)OC(C)c2ccccc2Cl)cc1` (stereo not drawn) [Compound 1, methyl 3-({4-[4-({[1-(2-chlorophenyl)ethoxy]carbonyl}amino)-3-methyl-5-isoxazolyl]benzyl}sulfanyl)propanoate], for which, in experiment [3] (Compound 1 administered together with 18:3-LPA (3 mg/kg/h), FIG. 5), the “recovery of pancreatic juice secretion from the inhibition by 18:3-LPA” value is on record as “significantly recovered”. Besides, the “basal (at resting) secretion volume of pancreatic juice vs control group (vehicle)” value in experiment [3] (Compound 1 alone, 10 mg/kg/h i.v. infusion, after one hour, FIG. 5) is reported as “no difference”.

Turning to “CCK-8: cholecystokinin, CCK-8 (Sigma No. C-2175), used to stimulate pancreatic juice secretion (DY(SO3H)MGWMDF-NH2; UniProt P06307 96-103, looked up)”, the “secretion of pancreatic juice (stimulation)” value in experiment [4] (1 ml/h through the cervical vein) is recorded as “markedly increased”.
